Test results published in patent US20040181343A1, “Computer program products and systems for rapidly changing the solution environment around sensors” (Cellectricon AB, priority 2002, published 2004).

System: PC-12 cell
Conditions: cell-scanning speed 250 μm/s
Excerpt: The flow rate was 3.24 mm/s and the cell scanning speed was 250 μm/s.
In these applications, as discussed above, both the flow rate of the fluids exiting the microchannels and the scan rate of the patch clamped cell are important. […] The width of each microchannel is 100 μm, the thickness is 50 μm, and the intermicrochannel spacing is 25 μm. The procedure used for fabricating the microchannels and for patch clamping are identical to that described in Example 2 (see above). The patch clamped cell used was a PC-12 cell, which was placed between 10 to 20 micrometers away from the outlets of the microchannels. Microchannels 1, 3, 5 and 7 were filled with PBS buffer, while microchannels 2, 4 and 6 were filled with acetylcholine. The flow rate of the fluid streams was 6.8 mm/s.
In a 7-microchannel structure, microchannels 1, 3, 5 and 7 were filled with PBS buffer, whereas microchannels 2, 4, and 6 were filled with 1 μM, 12 μM, and 200 μM nicotine, respectively. The flow rate used was […] and the cell-scanning speed was 250 μm/s. The patch-clamped cell was placed between 10 to 20 μm away from the outlet of the microchannel.

SMILES: CN1CCCC1c1cccnc1 (stereo not drawn) [nicotine]
- Whole-cell current response (1 μM nicotine): barely discernible
- Whole-cell current peak (12 μM nicotine): detected with good signal-to-noise ratio
- Current peak at 200 μM relative to the peak for 12 μM (200 μM nicotine versus 12 μM): 15 to 20 times
